# Where two headings read alike, the source gives them in different places.
# Assays:
# [1] = test system: German cockroach males; details: cited from earlier work
# [2] = test system: German cockroaches; details: male, German cockroach, in vivo, po
# Procedure: Adult male German cockroaches were obtained directly from German cockroach colonies maintained in the laboratory after a brief exposure to CO2 to facilitate handling. Cohorts of similar age (˜11 weeks old), adult male cockroaches (˜300 individuals) were randomly selected and moved into holding containers (Lock&Lock containers, Lock&Lock Co. Ltd., Dallas, Tex., USA) using a pair of soft tissue forceps. Cockroaches were starved in holding containers for 48 hours. Following starvation, cockroaches were transferred into the fecal collection apparatus. The fecal collection apparatus consisted of two vertically connected holding containers (Lock&Lock Co. Ltd., Dallas, Tex., USA) separated by a mesh screen. Cockroaches were introduced into the upper compartment of the collection apparatus and fecal pellets were collected from the floor of the lower container. The floor of the lower container was sealed with aluminum foil to facilitate the removal of fecal pellets. […] Fecal pellets were collected weekly until a sufficient amount of faeces was obtained to achieve analytical quantification. Quantification of pyriproxyfen was made by standard high-performance liquid chromatography-mass spectrometry (HPLC-MS) developed for pyriproxyfen. […]
# [3] = test system: German cockroaches; experiment: Reproductive inhibition by harborages contaminated with pyriproxyfen-containing fecal pellets (secondary exposure); format: in vivo, German cockroach
# [4] = test system: cockroaches; experiment: Efficacy of bait at different pyriproxyfen concentrations; details: in vivo
# Procedure: In one embodiment, the bait comprises abamectin at 0.05% and pyriproxyfen at 0.5% by weight. Efficacy was observed from 0.05 to 1.0% of pyriproxyfen. No higher doses were tested due to physical changes to the matrix, but higher amounts could be used by modifying the matrix. Pyriproxyfen is non-repellent so biologically 1.0% is not an absolute upper concentration limit.
compound,measurement,setting,value
N#Cc1nn(-c2c(Cl)cc(C(F)(F)F)cc2Cl)c(N)c1[S+]([O-])C(F)(F)F (stereo not drawn) [fipronil],mortality of German cockroach males,"[1]; 24-hour post-bait introduction, laboratory studies",100%
CC(COc1ccc(Oc2ccccc2)cc1)Oc1ccccn1 (stereo not drawn) [pyriproxyfen],portion of ingested pyriproxyfen present in the frass,[2],~60%
same,suppression of the reproductive output of exposed cockroaches,[3]; consumption of pyriproxyfen contaminated frass (secondary exposure),100%
same,suppression of reproductive maturation,[3]; fecal pellets deposited following consumption of pyriproxyfen,100%
same,repellency,[4],non-repellent
abamectin,mortality of German cockroach males,"[1]; in 5 days, same conditions",100%

# Source: patent US20150150246A1, “USE OF INSECT GROWTH REGULATORS IN COCKROACH CONTROL” (MCLAUGHLIN GORMLEY KING COMPANY, priority 2013, published 2015)
